Assay results as given in US20090117176A1, “Anticancer Treatments” (Pharma Mar, S.A. Sociedad Unipersonal, priority 2004, published 2009).
Marks after values point to notes of the source that are not given here.

Columns and labels:
[1] = high-dose dexamethasone pretreatment, female rat; cited from earlier work
[2] = Phase I trial combining PLD and trabectedin: MTD, safety, drug-related adverse events; format: in vivo, human
Method: (§1) A phase I trial combining PLD and trabectedin was performed. The objective of this study was to determine the maximum tolerated dose (MTD) of trabectidin in combination with PLD 30 mg/m^2 administered every 21 clays. Additional objectives were to evaluate the safety profile of this combination of drugs and to evaluate the pharmacokinetics of trabectidin and PDL when given in combination. The maximum tolerated dose (MTD) relates to the highest dose at which less than one third of the subjects in a dose-level cohort experienced dose-limiting toxicity (DLT).
(§2) We designed a dose finding trial with a fixed PLD dose of 30 mg/m^2 administered intravenously over one hour, followed immediately by one of six trabectedin doses (0.4, 0.6, 0.75, 0.9, 1.1, and 1.3 mg/m^2) administered intravenously over 3 hours. This treatment was repeated every 21 days.
Entry-criteria included normal liver function tests, limited prior, doxorubicin-exposure (dose less than 250 mg/m^2), normal cardiac function and Eastern Cooperative Oncology Group (ECOG) Performance Status (PS) score of 0 or 1.
Worst on-treatment drug related grade 3 and 4 toxicities have been minimal, limited to neutropenia and transaminases elevation. Tables 5a and 5b show the frequently reported drug-related Grade ¾ adverse events in least 5% of subjects. The adverse events reported at any time from first treatment dose up to 30 days after the last treatment dose are included. In order to define the toxicity grade, NCI common criteria are used.
In addition, Tables 6a and 6b show the drug-related serious adverse events reported.
Out of 18 subjects that discontinued treatment only one subject terminated treatment due to drug related adverse event (Tables 7a and 7b).

cancer = experiment: Phase I trial combining PLD and trabectedin: best overall response; format: in vivo, human; details: for Best Overall Response: SD (patients, tumour type): stable disease > 3 months
Method: as §1, §2
Thirty patients, 14 with sarcomas, 2 with ovarian cancer, 2 with pancreatic cancer, 2 with head and neck carcinoma, 1 with bladder cancer, 1 with breast cancer, 1 with gastric cancer, 1 with NSCLC, 1 with SCLC and 5 more with other types of cancers have been treated (Table 1).
Fourteen (14) additional patients (five with sarcoma, and one each carcinoid tumor, pancreatic, bladder, head and neck, thyroid, breast, gastric, SCLC and ovarian cancer) have had stable disease for > 3 months (Table 8a and 8b).

[3] = Phase I trial combining PLD and trabectedin: pharmacokinetics of trabectedin; format: in vivo, human; details: for AUC∞ / Cl / Cmax / T1/2: mean; for Impact of concomitant PLD on the pharmacokinetics of trabectedin: preliminary analysis, versus historical control data of trabectedin alone
Method: as §1, §2
Based on preliminary pharmacokinetic analysis, the values of trabectedin CL (systematic clearance after i.v. dose), t½ (half life) and Vss (apparent volume of distribution at steady state) are within the range observed when trabectedin is given alone (historical control data) (FIG. 1, Table 9),

[4] = Phase I dose escalation study of Doxorubicin (60 mg/m^2) in combination with ET-743; format: in vivo, human; details: in combination with Doxorubicin 60 mg/m^2, ET-743 over 3 hours
Method: The following figures indicate that the use of PLD in combination with ET-743, allows an escalated dose of ET-743 to be tolerated, in comparison to when Doxorubicin is used. A phase I dose escalation study of Doxorubicin (60 mg/m^2) in combination with ET-743, administered over 3 hours, could only support a ET-743 dose of 0.7 mg/m^2. In a Phase I dose escalation study of 30 mg/m^2 PLD in combination with ET-743 administered over 3 hours, ET-743 could be escalated to 1.1 mg/m^2.

human tumour xenografts = details: xenografts including melanoma and ovarian and breast carcinoma; cited from earlier work
[5] = system: sarcoma and breast and ovarian carcinoma; details: phase I, ET-743 alone; cited from earlier work
[6] = patients, infusion over 24-72 hr; cited from earlier work
[7] = increase in plasma liver enzymes, cholangitis; cited from earlier work
[8] = ET743 0.4 mg/m^2 + PLD 30 mg/m^2, N = 3
[9] = ET743 0.6 mg/m^2 + PLD 30 mg/m^2, N = 3
[10] = ET743 0.75 mg/m^2 + PLD 30 mg/m^2, N = 3
[11] = ET743 0.9 mg/m^2 + PLD 30 mg/m^2, N = 3
[12] = ET743 1.1 mg/m^2 + PLD 30 mg/m^2, N = 12
[13] = ET743 1.3 mg/m^2 + PLD 30 mg/m^2, N = 6
[14] = Total, all ET743 dose levels + PLD 30 mg/m^2, N = 30
[15] = ET-743 0.9 mg/m^2 3 hours infusion after PLD 30 mg/m^2 1 hour infusion, N 3
[16] = ET-743 1.1 mg/m^2 3 hours infusion after PLD 30 mg/m^2 1 hour infusion, N 3
[17] = ET-743 1.3 mg/m^2 3 hours infusion after PLD 30 mg/m^2 1 hour infusion, N 2

C[C@@H]1C[C@H]2[C@@H]3CCC4=CC(=O)C=C[C@]4(C)[C@@]3(F)[C@@H](O)C[C@]2(C)[C@@]1(O)C(=O)CO [dexamethasone]
effect of pretreatment on ET-743 hepatotoxicity [1]: abrogate ET-743-mediated hepatotoxicity

COc1cc2c(cc1O)CCN[C@]21CS[C@@H]2c3c(OC(C)=O)c(C)c4c(c3[C@H](COC1=O)N1[C@@H]2[C@H]2c3c(cc(C)c(OC)c3O)C[C@@H]([C@@H]1O)N2C)OCO4 [ET743, Ecteinascidin 743]
Drug related serious adverse events, subjects: Nausea/Vomiting [2, 8]: 0 | Grade 3/4 drug-related AE, subjects: Allergic Reaction [2, 8]: 0 | Grade 3/4 drug-related AE, subjects: Liver and Biliary System [2, 8]: 0 | Grade 3/4 drug-related AE, subjects: Nausea [2, 8]: 0 | Grade 3/4 drug-related AE, subjects: Other [2, 8]: 0 | Grade 3/4 drug-related AE, subjects: Palmar-Plantar Erythrodysesthesia [2, 8]: 0 | Grade 3/4 drug-related AE, subjects: SGOT Increased [2, 8]: 0 | Grade 3/4 drug-related AE, subjects: SGPT Increased [2, 8]: 0 | Total no. subjects with Grade 3/4 drug-related AE [2, 8]: 0 | Total no. subjects with SAE (drug related serious adverse events) [2, 8]: 0 | Treatment termination, subjects: Death [2, 8]: 0 | Treatment termination, subjects: Drug-Related AE (hand-foot syndrome) [2, 8]: 0 | Drug related serious adverse events, subjects: Nausea/Vomiting [2, 9]: 0 | Grade 3/4 drug-related AE, subjects: Allergic Reaction [2, 9]: 0 | Grade 3/4 drug-related AE, subjects: Liver and Biliary System [2, 9]: 0 | Grade 3/4 drug-related AE, subjects: Nausea [2, 9]: 1 | Grade 3/4 drug-related AE, subjects: Other [2, 9]: 1 | Grade 3/4 drug-related AE, subjects: Palmar-Plantar Erythrodysesthesia [2, 9]: 0 | Grade 3/4 drug-related AE, subjects: SGOT Increased [2, 9]: 0 | Grade 3/4 drug-related AE, subjects: SGPT Increased [2, 9]: 0 | Total no. subjects with Grade 3/4 drug-related AE [2, 9]: 1 | Total no. subjects with SAE (drug related serious adverse events) [2, 9]: 0 | Treatment termination, subjects: Death [2, 9]: 0 | Treatment termination, subjects: Drug-Related AE (hand-foot syndrome) [2, 9]: 0 | Drug related serious adverse events, subjects: Nausea/Vomiting [2, 10]: 0 | Grade 3/4 drug-related AE, subjects: Allergic Reaction [2, 10]: 0 | Grade 3/4 drug-related AE, subjects: Liver and Biliary System [2, 10]: 0 | Grade 3/4 drug-related AE, subjects: Nausea [2, 10]: 0 | Grade 3/4 drug-related AE, subjects: Other [2, 10]: 0 | Grade 3/4 drug-related AE, subjects: Palmar-Plantar Erythrodysesthesia [2, 10]: 0 | Grade 3/4 drug-related AE, subjects: SGOT Increased [2, 10]: 0 | Grade 3/4 drug-related AE, subjects: SGPT Increased [2, 10]: 0 | Total no. subjects with Grade 3/4 drug-related AE [2, 10]: 0 | Total no. subjects with SAE (drug related serious adverse events) [2, 10]: 0 | Treatment termination, subjects: Death [2, 10]: 0 | Treatment termination, subjects: Drug-Related AE (hand-foot syndrome) [2, 10]: 0 | Drug related serious adverse events, subjects: Nausea/Vomiting [2, 11]: 0 | Grade 3/4 drug-related AE, subjects: Allergic Reaction [2, 11]: 0 | Grade 3/4 drug-related AE, subjects: Liver and Biliary System [2, 11]: 0 | Grade 3/4 drug-related AE, subjects: Nausea [2, 11]: 0 | Grade 3/4 drug-related AE, subjects: Other [2, 11]: 0 | Grade 3/4 drug-related AE, subjects: Palmar-Plantar Erythrodysesthesia [2, 11]: 0 | Grade 3/4 drug-related AE, subjects: SGOT Increased [2, 11]: 0 | Grade 3/4 drug-related AE, subjects: SGPT Increased [2, 11]: 0 | Total no. subjects with Grade 3/4 drug-related AE [2, 11]: 0 | Total no. subjects with SAE (drug related serious adverse events) [2, 11]: 0 | Treatment termination, subjects: Death [2, 11]: 0 | Treatment termination, subjects: Drug-Related AE (hand-foot syndrome) [2, 11]: 0 | Drug related serious adverse events, subjects: Nausea/Vomiting [2, 12]: 1 | Grade 3/4 drug-related AE, subjects: Allergic Reaction [2, 12]: 2 | Grade 3/4 drug-related AE, subjects: Liver and Biliary System [2, 12]: 6 | Grade 3/4 drug-related AE, subjects: Nausea [2, 12]: 1 | Grade 3/4 drug-related AE, subjects: Other [2, 12]: 4 | Grade 3/4 drug-related AE, subjects: Palmar-Plantar Erythrodysesthesia [2, 12]: 2 | Grade 3/4 drug-related AE, subjects: SGOT Increased [2, 12]: 1 | Grade 3/4 drug-related AE, subjects: SGPT Increased [2, 12]: 6 | Total no. subjects with Grade 3/4 drug-related AE [2, 12]: 10 | Total no. subjects with SAE (drug related serious adverse events) [2, 12]: 1 | Treatment termination, subjects: Death [2, 12]: 0 | Treatment termination, subjects: Drug-Related AE (hand-foot syndrome) [2, 12]: 1 | Drug related serious adverse events, subjects: Nausea/Vomiting [2, 13]: 0 | Grade 3/4 drug-related AE, subjects: Allergic Reaction [2, 13]: 0 | Grade 3/4 drug-related AE, subjects: Liver and Biliary System [2, 13]: 3 | Grade 3/4 drug-related AE, subjects: Nausea [2, 13]: 0 | Grade 3/4 drug-related AE, subjects: Other [2, 13]: 2 | Grade 3/4 drug-related AE, subjects: Palmar-Plantar Erythrodysesthesia [2, 13]: 2 | Grade 3/4 drug-related AE, subjects: SGOT Increased [2, 13]: 2* | Grade 3/4 drug-related AE, subjects: SGPT Increased [2, 13]: 3* | Total no. subjects with Grade 3/4 drug-related AE [2, 13]: 6 | Total no. subjects with SAE (drug related serious adverse events) [2, 13]: 0 | Treatment termination, subjects: Death [2, 13]: 1 | Treatment termination, subjects: Drug-Related AE (hand-foot syndrome) [2, 13]: 0 | Grade 3/4 drug-related AE, subjects: Allergic Reaction [2, 14]: 2 | Grade 3/4 drug-related AE, subjects: Liver and Biliary System [2, 14]: 9 | Grade 3/4 drug-related AE, subjects: Nausea [2, 14]: 2 | Grade 3/4 drug-related AE, subjects: Other [2, 14]: 7 | Grade 3/4 drug-related AE, subjects: Palmar-Plantar Erythrodysesthesia [2, 14]: 4 | Grade 3/4 drug-related AE, subjects: SGOT Increased [2, 14]: 3 | Grade 3/4 drug-related AE, subjects: SGPT Increased [2, 14]: 9 | Total no. subjects with Grade 3/4 drug-related AE [2, 14]: 17 | Total no. subjects with SAE (drug related serious adverse events) [2, 14]: 1 | Treatment termination, subjects: Death [2, 14]: 1 | Treatment termination, subjects: Drug-Related AE (hand-foot syndrome) [2, 14]: 1 | Tolerability of the combination ([2]; both drugs at full (or near full) therapeutic doses for prolonged periods): well tolerated | ET-743 dose reached in dose escalation ([2]; in combination with 30 mg/m^2 PLD, ET-743 over 3 hours): 1.1 mg/m^2 | maximum tolerated dose (MTD) ([2]; in combination with PLD 30 mg/m^2, every 21 days, ET-743 i.v. over 3 hours): 1.1 mg/m^2 | recommended dose of the combination treatment ([2]; plus 30 mg/m^2 of PLD): 1.1 mg/m^2 | Best Overall Response: PR (patients, tumour type) (cancer; [8]): 1 Sarcoma | Treatment termination, subjects: Disease Progression (cancer; [8]): 2 | Best Overall Response: PR (patients, tumour type) (cancer; [9]): 0 | Treatment termination, subjects: Disease Progression (cancer; [9]): 1 | Best Overall Response: PR (patients, tumour type) (cancer; [10]): 0 | Treatment termination, subjects: Disease Progression (cancer; [10]): 2 | Best Overall Response: SD (patients, tumour type) (cancer; [10]): 1 Thyroid | Best Overall Response: PR (patients, tumour type) (cancer; [11]): 0 | Treatment termination, subjects: Disease Progression (cancer; [11]): 3 | Best Overall Response: SD (patients, tumour type) (cancer; [11]): 0 | Best Overall Response: PR (patients, tumour type) (cancer; [12]): 1 Sarcoma | Treatment termination, subjects: Disease Progression (cancer; [12]): 5 | Treatment termination, subjects: Disease Progression (cancer; [13]): 2 | Clinical benefit (measurable responses) (cancer; ET-743 together with PLD, soft tissue sarcoma, ovarian and head and neck cancer): measurable responses demonstrated evidence of clinical benefit | Treatment termination, subjects: Disease Progression (cancer; [14]): 15 | AUC∞ [3, 15]: 39 ng·h/mL | Cl [3, 15]: 23 l/h/m2 | Cmax [3, 15]: 6 ng/mL | T1/2 [3, 15]: 93 h | AUC∞ [3, 16]: 42 ng·h/mL | Cl [3, 16]: 26 l/h/m2 | Cmax [3, 16]: 6 ng/mL | T1/2 [3, 16]: 65 h | AUC∞ [3, 17]: 31 ng·h/mL | Cl [3, 17]: 44 l/h/m2 | Cmax [3, 17]: 7 ng/mL | T1/2 [3, 17]: 47 h | Impact of concomitant PLD on the pharmacokinetics of trabectedin [3]: does not have an impact | Impact of concomitant PLD on the pharmacokinetics of trabectedin ([3]; listed as trabectidin): overtly not impacted | ET-743 dose that could be supported in dose escalation [4]: 0.7 mg/m^2 | antineoplastic activity (human tumour xenografts): potent antineoplastic activity | clinical responses [5]: promising responses were observed | side effects [6]: myelotoxic and hepatotoxic side effects | acute toxicity finding [7]: liver toxicity as an important side effect
